# Source: ChEMBL document CHEMBL4270577, “Synthesis, anticancer activity and molecular modeling studies of 1,2,4-triazole derivatives as EGFR inhibitors” (Eur J Med Chem, 2018)
# System: CCRF-CEM
# Test: Growth inhibition of human CCRF-CEM cells at 10 uM incubated for 48 hrs by sulforhodamine B assay relative to control
# Assay type: functional
# Conditions: read-out: GI
row,SMILES,inhibition of growth at 10 µM [%]
1,CC(=O)c1ccc(NC(=O)Cn2nc(-c3ccc(Cl)cc3)nc2N)cc1,19.9

# System: HL-60(TB)
# Test: Growth inhibition of human HL-60(TB) cells at 10 uM incubated for 48 hrs by sulforhodamine B assay relative to control
# Assay type: functional
# Conditions: HL-60, 48 h, read-out: GI
row,SMILES,inhibition of growth at 10 µM [%]
1,CC(=O)c1ccc(NC(=O)Cn2nc(-c3ccc(Cl)cc3)nc2N)cc1,7.98

# System: MOLT-4
# Test: Growth inhibition of human MOLT4 cells at 10 uM incubated for 48 hrs by sulforhodamine B assay relative to control
# Assay type: functional
# Conditions: MOLT-4, 48 h, read-out: GI
row,SMILES,inhibition of growth at 10 µM [%]
1,CC(=O)c1ccc(NC(=O)Cn2nc(-c3ccc(Cl)cc3)nc2N)cc1,16.5

# System: RPMI-8226
# Test: Growth inhibition of human RPMI8226 cells at 10 uM incubated for 48 hrs by sulforhodamine B assay relative to control
# Assay type: functional
# Conditions: RPMI-8226, 48 h, read-out: GI
row,SMILES,inhibition of growth at 10 µM [%]
1,CC(=O)c1ccc(NC(=O)Cn2nc(-c3ccc(Cl)cc3)nc2N)cc1,3.17

# System: SR
# Test: Growth inhibition of human SR cells at 10 uM incubated for 48 hrs by sulforhodamine B assay relative to control
# Assay type: functional
# Conditions: read-out: GI
row,SMILES,inhibition of growth at 10 µM [%]
1,CC(=O)c1ccc(NC(=O)Cn2nc(-c3ccc(Cl)cc3)nc2N)cc1,7.32

# System: A549
# Test: Growth inhibition of human A549/ATCC cells at 10 uM incubated for 48 hrs by sulforhodamine B assay relative to control
# Assay type: functional
# Conditions: A549, 48 h, read-out: GI
row,SMILES,inhibition of growth at 10 µM [%]
1,CC(=O)c1ccc(NC(=O)Cn2nc(-c3ccc(Cl)cc3)nc2N)cc1,22

# System: HOP-62
# Test: Growth inhibition of human HOP62 cells at 10 uM incubated for 48 hrs by sulforhodamine B assay relative to control
# Assay type: functional
# Conditions: HOP-62, 48 h, read-out: GI
row,SMILES,inhibition of growth at 10 µM [%]
1,CC(=O)c1ccc(NC(=O)Cn2nc(-c3ccc(Cl)cc3)nc2N)cc1,15.1

# System: HOP-92
# Test: Growth inhibition of human HOP92 cells at 10 uM incubated for 48 hrs by sulforhodamine B assay relative to control
# Assay type: functional
# Conditions: HOP-92, 48 h, read-out: GI
row,SMILES,inhibition of growth at 10 µM [%]
1,CC(=O)c1ccc(NC(=O)Cn2nc(-c3ccc(Cl)cc3)nc2N)cc1,7.76

# System: NCI-H322M
# Test: Growth inhibition of human NCI-H322M cells at 10 uM incubated for 48 hrs by sulforhodamine B assay relative to control
# Assay type: functional
# Conditions: read-out: GI
row,SMILES,inhibition of growth at 10 µM [%]
1,CC(=O)c1ccc(NC(=O)Cn2nc(-c3ccc(Cl)cc3)nc2N)cc1,5.69

# System: NCI-H522
# Test: Growth inhibition of human NCI-H522 cells at 10 uM incubated for 48 hrs by sulforhodamine B assay relative to control
# Assay type: functional
# Conditions: NCI-H522, 48 h, read-out: GI
row,SMILES,inhibition of growth at 10 µM [%]
1,CC(=O)c1ccc(NC(=O)Cn2nc(-c3ccc(Cl)cc3)nc2N)cc1,28

# System: HCT-116
# Test: Growth inhibition of human HCT116 cells at 10 uM incubated for 48 hrs by sulforhodamine B assay relative to control
# Assay type: functional
# Conditions: HCT-116, 48 h, read-out: GI
row,SMILES,inhibition of growth at 10 µM [%]
1,CC(=O)c1ccc(NC(=O)Cn2nc(-c3ccc(Cl)cc3)nc2N)cc1,4.68

# System: HT-29
# Test: Growth inhibition of human HT-29 cells at 10 uM incubated for 48 hrs by sulforhodamine B assay relative to control
# Assay type: functional
# Conditions: HT-29, 48 h, read-out: GI
row,SMILES,inhibition of growth at 10 µM [%]
1,CC(=O)c1ccc(NC(=O)Cn2nc(-c3ccc(Cl)cc3)nc2N)cc1,10.4

# System: SNB-19
# Test: Growth inhibition of human SNB19 cells at 10 uM incubated for 48 hrs by sulforhodamine B assay relative to control
# Assay type: functional
# Conditions: SNB-19, 48 h, read-out: GI
row,SMILES,inhibition of growth at 10 µM [%]
1,CC(=O)c1ccc(NC(=O)Cn2nc(-c3ccc(Cl)cc3)nc2N)cc1,8.53

# System: SNB-75
# Test: Growth inhibition of human SNB75 cells at 10 uM incubated for 48 hrs by sulforhodamine B assay relative to control
# Assay type: functional
# Conditions: SNB-75, 48 h, read-out: GI
row,SMILES,inhibition of growth at 10 µM [%]
1,CC(=O)c1ccc(NC(=O)Cn2nc(-c3ccc(Cl)cc3)nc2N)cc1,6.47

# System: U-251
# Test: Growth inhibition of human U251 cells at 10 uM incubated for 48 hrs by sulforhodamine B assay relative to control
# Assay type: functional
# Conditions: U-251, 48 h, read-out: GI
row,SMILES,inhibition of growth at 10 µM [%]
1,CC(=O)c1ccc(NC(=O)Cn2nc(-c3ccc(Cl)cc3)nc2N)cc1,5.94

# System: SK-MEL-2
# Test: Growth inhibition of human SK-MEL-2 cells at 10 uM incubated for 48 hrs by sulforhodamine B assay relative to control
# Assay type: functional
# Conditions: SK-MEL-2, 48 h, read-out: GI
row,SMILES,inhibition of growth at 10 µM [%]
1,CC(=O)c1ccc(NC(=O)Cn2nc(-c3ccc(Cl)cc3)nc2N)cc1,4.03

# System: UACC-257
# Test: Growth inhibition of human UACC257 cells at 10 uM incubated for 48 hrs by sulforhodamine B assay relative to control
# Assay type: functional
# Conditions: UACC-257, 48 h, read-out: GI
row,SMILES,inhibition of growth at 10 µM [%]
1,CC(=O)c1ccc(NC(=O)Cn2nc(-c3ccc(Cl)cc3)nc2N)cc1,19.8

# System: UACC-62
# Test: Growth inhibition of human UACC62 cells at 10 uM incubated for 48 hrs by sulforhodamine B assay relative to control
# Assay type: functional
# Conditions: UACC-62, 48 h, read-out: GI
row,SMILES,inhibition of growth at 10 µM [%]
1,CC(=O)c1ccc(NC(=O)Cn2nc(-c3ccc(Cl)cc3)nc2N)cc1,6.29

# System: OVCAR-8
# Test: Growth inhibition of human OVCAR8 cells at 10 uM incubated for 48 hrs by sulforhodamine B assay relative to control
# Assay type: functional
# Conditions: OVCAR-8, 48 h, read-out: GI
row,SMILES,inhibition of growth at 10 µM [%]
1,CC(=O)c1ccc(NC(=O)Cn2nc(-c3ccc(Cl)cc3)nc2N)cc1,15.4

# System: SK-OV-3
# Test: Growth inhibition of human SKOV3 cells at 10 uM incubated for 48 hrs by sulforhodamine B assay relative to control
# Assay type: functional
# Conditions: SK-OV-3, 48 h, read-out: GI
row,SMILES,inhibition of growth at 10 µM [%]
1,CC(=O)c1ccc(NC(=O)Cn2nc(-c3ccc(Cl)cc3)nc2N)cc1,22

# System: UO-31
# Test: Growth inhibition of human UO31 cells at 10 uM incubated for 48 hrs by sulforhodamine B assay relative to control
# Assay type: functional
# Conditions: UO-31, 48 h, read-out: GI
row,SMILES,inhibition of growth at 10 µM [%]
1,CC(=O)c1ccc(NC(=O)Cn2nc(-c3ccc(Cl)cc3)nc2N)cc1,20.6

# System: PC-3
# Test: Growth inhibition of human PC3 cells at 10 uM incubated for 48 hrs by sulforhodamine B assay relative to control
# Assay type: functional
# Conditions: PC-3, 48 h, read-out: GI
row,SMILES,inhibition of growth at 10 µM [%]
1,CC(=O)c1ccc(NC(=O)Cn2nc(-c3ccc(Cl)cc3)nc2N)cc1,20.3

# System: MCF7
# Test: Growth inhibition of human MCF7 cells at 10 uM incubated for 48 hrs by sulforhodamine B assay relative to control
# Assay type: functional
# Conditions: MCF7, 48 h, read-out: GI
row,SMILES,inhibition of growth at 10 µM [%]
1,CC(=O)c1ccc(NC(=O)Cn2nc(-c3ccc(Cl)cc3)nc2N)cc1,5.48

# System: Hs-578T
# Test: Growth inhibition of human Hs 578T cells at 10 uM incubated for 48 hrs by sulforhodamine B assay relative to control
# Assay type: functional
# Conditions: read-out: GI
row,SMILES,inhibition of growth at 10 µM [%]
1,CC(=O)c1ccc(NC(=O)Cn2nc(-c3ccc(Cl)cc3)nc2N)cc1,6.29

# System: T47D
# Test: Growth inhibition of human T47D cells at 10 uM incubated for 48 hrs by sulforhodamine B assay relative to control
# Assay type: functional
# Conditions: read-out: GI
row,SMILES,inhibition of growth at 10 µM [%]
1,CC(=O)c1ccc(NC(=O)Cn2nc(-c3ccc(Cl)cc3)nc2N)cc1,21.6

# System: PANC-1
# Test: Antiproliferative activity against human PANC1 cells after 48 hrs by propidium iodide staining-based fluorometric analysis
# Assay type: functional, cell-based
# Conditions: PANC-1, 48 h
row,SMILES,IC50 [µM]
1,CC(=O)c1ccc(NC(=O)Cn2nc(-c3ccccc3)nc2N)cc1,9.5
2,CC(=O)c1ccc(NC(=O)Cn2nc(-c3ccc(Cl)cc3)nc2N)cc1,7.4

# System: MIA PaCa-2
# Test: Antiproliferative activity against human MIAPaCa2 cells after 48 hrs by propidium iodide staining-based fluorometric analysis
# Assay type: functional, cell-based
# Conditions: MIA PaCa-2, 48 h
row,SMILES,IC50 [µM]
1,CC(=O)c1ccc(NC(=O)Cn2nc(-c3ccccc3)nc2N)cc1,8.5
2,CC(=O)c1ccc(NC(=O)Cn2nc(-c3ccc(Cl)cc3)nc2N)cc1,8.1

# System: HT-29
# Test: Antiproliferative activity against human HT-29 cells after 48 hrs by propidium iodide staining-based fluorometric analysis
# Assay type: functional, cell-based
# Conditions: HT-29, 48 h
row,SMILES,IC50 [µM]
1,CC(=O)c1ccc(NC(=O)Cn2nc(-c3ccccc3)nc2N)cc1,8.4
2,CC(=O)c1ccc(NC(=O)Cn2nc(-c3ccc(Cl)cc3)nc2N)cc1,6.9

# System: NCI-H460
# Test: Antiproliferative activity against human H460 cells after 48 hrs by propidium iodide staining-based fluorometric analysis
# Assay type: functional, cell-based
# Conditions: NCI-H460, 48 h
row,SMILES,IC50 [µM]
1,CC(=O)c1ccc(NC(=O)Cn2nc(-c3ccccc3)nc2N)cc1,9.8
2,CC(=O)c1ccc(NC(=O)Cn2nc(-c3ccc(Cl)cc3)nc2N)cc1,6.8
